Reference: the PolyMetriX glass transition set
± gives the standard deviation of the reports.

Row | SMILES | glass transition temperature [°C]
1 | *c1ccccc1CCc1ccc(N2C(=O)C(=O)N(c3ccc(C)c(N4C(=O)C(=O)N(*)C4=O)c3)C2=O)cc1 (repeat unit) | 255.00
2 | *Oc1ccc(OC(=O)c2ccc(OC(=O)c3ccc(C(=O)Oc4ccc(C(*)=O)cc4)cc3)cc2)cc1 (repeat unit) | 283.00
3 | *Oc1ccc(C(=O)Nc2ccc(S(=O)(=O)c3ccc(NC(=O)c4ccc(Oc5nc(*)nc(Sc6ccccc6)n5)cc4)cc3)cc2)cc1 (repeat unit) | 310.00
4 | *CCOCCOC(=O)C1CCC(C(=O)O*)CC1 (repeat unit) | -12.00
5 | *c1ccc(Sc2cc3c(cc2Sc2ccc(N4C(=O)C5C6C=CC(C7C(=O)N(*)C(=O)C67)C5C4=O)cc2)C(=O)N(c2ccc(CC)cc2)C3=O)cc1 (repeat unit) | 320.00
6 | *C1C2CC(CCCCCCCCC(=O)OCC)C(C2)C1* (repeat unit) | 134.00
7 | *CCN(CCOC(=O)NCC1(C)CC(NC(=O)O*)CC(C)(C)C1)c1ccc(/N=N/c2ccc(B(c3c(C)cc(C)cc3C)c3c(C)cc(C)cc3C)cc2)cc1 (repeat unit) | 146.00
8 | *CCCCCCCCCCCCNC(=O)c1ccc(C(=O)N*)c(Sc2ccccc2)c1 (repeat unit) | 92.00
9 | *CCC1C(=O)N(CCCCNC(=O)C(F)(F)C(F)(F)C(F)(F)C(F)(F)C(F)(F)C(F)(F)C(F)(F)F)C(=O)C1* (repeat unit) | 100.00
10 | *Oc1ccc(S(=O)(=O)c2ccc(Oc3c(C)cc(C(c4cc(C)c(*)c(C)c4)(C(F)(F)F)C(F)(F)F)cc3C)cc2C(O)(C(F)(F)F)C(F)(F)F)c(C(O)(C(F)(F)F)C(F)(F)F)c1 (repeat unit) | 196.00
11 | *c1ccc(N2C(=O)c3ccc(C(=O)c4ccc5c(c4)C(=O)N(c4ccc6[nH]c(*)nc6c4)C5=O)cc3C2=O)cc1 (repeat unit) | 412.00
12 | *Oc1ccc(Oc2ccc(C(=O)c3ccc(*)cc3)cc2)cc1 (repeat unit) | 146 ± 1.3
13 | *C(=O)Nc1cccc(NC(=O)c2ccc3[nH]c(-c4cc(-c5nc6cc(*)ccc6[nH]5)cc(N5C(=O)c6ccccc6C5=O)c4)nc3c2)c1 (repeat unit) | 304.00
14 | *Oc1ccc(/N=N/c2ccc(Oc3ccc(C(C)(C)c4ccc(*)cc4)cc3)cc2)cc1 (repeat unit) | 175.00
15 | *CCCCCCOC(=O)OCCCOC(=O)OCCCCCCOc1ccc(Oc2ccc(O*)cc2)cc1 (repeat unit) | -6.00
16 | *c1cccc(Oc2cccc(Oc3cccc(N4C(=O)c5ccc(Oc6ccc7c(c6)C(=O)N(*)C7=O)cc5C4=O)c3)c2C#N)c1 (repeat unit) | 219.00
17 | *C(=O)OCCCCCCCCCCOC(=O)c1ccc(N2C(=O)c3ccc(*)cc3C2=O)cc1 (repeat unit) | 58.00
18 | *c1ccc(C(=O)c2cccc(C(=O)c3ccc(S(*)(=O)=O)cc3)c2)cc1 (repeat unit) | 198.00
19 | *C(=O)Nc1ccc(Oc2ccc(Oc3ccc(NC(=O)c4ccc5c(c4)C(=O)N(c4ccc(-c6sc(-c7ccc(N8C(=O)c9ccc(*)cc9C8=O)cc7)c(-c7ccccc7)c6-c6ccccc6)cc4)C5=O)cc3)cc2)cc1 (repeat unit) | 303.00
20 | *c1ccc(Oc2ccc(-c3ccc(Oc4ccc(-c5nc(-c6ccccn6)nnc5*)cc4)cc3)cc2)cc1 (repeat unit) | 230.00
21 | *C(=O)Nc1ccc(Oc2ccc(NC(=O)c3ccc4c(c3)C(=O)N(c3ccc(S(=O)(=O)c5ccc(N6C(=O)c7ccc(*)cc7C6=O)cc5)cc3)C4=O)cc2)cc1 (repeat unit) | 281.00

Row | SMILES | glass transition temperature [°C]
22 | *c1ccc(Oc2ccc(-n3c(=O)c4cc5c(=O)n(*)c(=O)c5cc4c3=O)cc2)cc1 (repeat unit) | 385.00 ± 20
23 | *CCC[Si](*)(C)C[Si](C)(C)C (repeat unit) | -51.00
24 | *Oc1c(F)c(F)c(S(=O)(=O)c2c(F)c(F)c(Oc3ccc(C(c4ccc(*)cc4)(C(F)(F)F)C(F)(F)F)cc3)c(F)c2F)c(F)c1F (repeat unit) | 182.00
25 | *Cc1ccccc1[Si](*)(C)c1ccccc1 (repeat unit) | 93.80
26 | *CC(=O)c1ccc(Oc2ccc(C(=O)COc3ccc(/C=C4\CCC/C(=C\c5ccc(O*)c(OC)c5)C4=O)cc3OC)cc2)cc1 (repeat unit) | 211.8
27 | *Oc1ccc(NC(=O)Nc2cc(NC(=O)Nc3ccc(*)cc3)ccc2C)cc1 (repeat unit) | 269.00
28 | *Oc1c(C)cc(C(C)(C)c2cc(C)c(ON3C(=O)c4ccc(Oc5ccc(C6(c7ccc(Oc8ccc9c(c8)C(=O)N(*)C9=O)cc7)CCC(C(C)(C)C)CC6)cc5)cc4C3=O)c(C)c2)cc1C (repeat unit) | 248.00
29 | *Oc1ccc(CC(NC(=O)CCc2ccc(OC(=O)COCC(*)=O)cc2)C(=O)OCC(C)C)cc1 (repeat unit) | 72.00
30 | *c1ccc2c(c1)C(=O)N(c1ccc(-c3cc(-c4ccc(OCCCC#N)cc4)cc(-c4ccc(N5C(=O)c6ccc(C(*)(C(F)(F)F)C(F)(F)F)cc6C5=O)cc4)n3)cc1)C2=O (repeat unit) | 339.00
31 | *CC#CC#CCOC(=O)c1ccc(C(=O)O*)cc1 (repeat unit) | 143.00
32 | *CC(*)(C)C(=O)OCc1ccc2c(c1)c1ccccc1n2CCCC (repeat unit) | 87.00
33 | *C(=O)Nc1cccc(Oc2ccc(C(=O)c3ccc(Oc4cccc(NC(=O)c5ccc(*)nc5)c4)cc3)cc2)c1 (repeat unit) | 154.00
34 | *c1ccc(C(c2ccccc2)c2ccc(N3C(=O)c4ccc(-c5ccc6c(c5)C(=O)N(*)C6=O)cc4C3=O)cc2)cc1 (repeat unit) | 315.00
35 | *c1ccc(Oc2cccc(Oc3ccc(N4C(=O)c5cccc(Oc6cccc(Oc7cccc8c7C(=O)N(*)C8=O)c6)c5C4=O)cc3)c2)cc1 (repeat unit) | 193.00
36 | *C(=O)c1ccc2c(c1)C(=O)N(c1ccc(Cc3ccc(N4C(=O)c5ccc(*)cc5C4=O)c(C)c3)cc1C)C2=O (repeat unit) | 297.50 ± 18
37 | *Oc1c(C)cc(*)cc1C(C)CCCCCCCC (repeat unit) | 20.00
38 | *CC(*)c1ccc(CCl)cc1 (repeat unit) | 113.50
39 | *Oc1ccc(OC(=O)c2cc(OCCCCCCCOCC3CCCN3c3ccc([N+](=O)[O-])cc3)c(C(*)=O)cc2OCCCCCCCOCC2CCCN2c2ccc([N+](=O)[O-])cc2)cc1 (repeat unit) | 50.00
40 | *c1ccc(Oc2ccc(Oc3ccc(Oc4ccc(N5C(=O)c6ccc(-c7ccc8c(c7)C(=O)N(*)C8=O)cc6C5=O)cc4)cc3)cc2)cc1 (repeat unit) | 228.51
41 | *C(F)(F)C(*)(F)OC(F)(F)C(F)(F)C(F)(F)C(F)(F)F (repeat unit) | -10.00
42 | *c1ccc(C(=O)Nc2ccc(Oc3ccc(NC(=O)c4ccc(Oc5ccc(-c6nn(*)c(=O)c7ccccc67)c6ccccc56)cc4)cc3)cc2)cc1 (repeat unit) | 317.50

Row | SMILES | glass transition temperature [°C]
43 | *Oc1ccc2c(c1)C(C)(c1ccc(OC(*)=O)cc1)CC2(C)C (repeat unit) | 201.70
44 | *c1ccc(Cc2ccc(N3C(=O)c4ccc(Oc5ccc(Oc6ccc7c(c6)C(=O)N(*)C7=O)cc5)cc4C3=O)cc2)cc1 (repeat unit) | 259.00
45 | *c1cccc(C(=O)Nc2ccc(Oc3ccc(Oc4ccc(NC(=O)c5cccc(N6C(=O)c7ccc(-c8cccc9c8C(=O)N(*)C9=O)cc7C6=O)c5)cc4)cc3)cc2)c1 (repeat unit) | 268.00
46 | *Oc1ccc(C(=O)OCCCOC(=O)c2ccc(*)cc2)cc1 (repeat unit) | 57.00
47 | *O[Si](C)(C)c1ccc([Si](C)(C)Oc2c(C)cc(-c3cc(C)c(*)c(C)c3)cc2C)cc1 (repeat unit) | 67.00
48 | *CCCCCCCCCCCOC(=O)c1cc(OCCCCCCCCCCOc2ccc(/N=N/c3ccc(OC)cc3)cc2)cc(C(=O)OCCCCCCCCCCCOc2ccc(-c3ccc(O*)cc3)cc2)c1 (repeat unit) | 53.00
49 | *Sc1ccc(Sc2ccc(Sc3ccc4c(c3)C(=O)N(N3C(=O)c5ccc(*)cc5C3=O)C4=O)cc2)cc1 (repeat unit) | 223.50
50 | *CC1(*)CCCCC1 (repeat unit) | 100.00
51 | *Oc1ccc(C2(c3ccc(OC(=O)c4ccc(C(*)=O)cc4)cc3)c3ccccc3Cc3ccccc32)cc1 (repeat unit) | 342.00
52 | *c1ccc(C(C)(C)c2ccc(N3C(=O)c4ccc(Oc5ccc6c(c5)C(=O)N(*)C6=O)cc4C3=O)cc2)cc1 (repeat unit) | 265.00
53 | *Oc1ccc(OC(=O)c2cccc(Sc3ccc(OC(=O)c4ccc(C(=O)Oc5ccc(Sc6cccc(C(*)=O)c6)cc5)cc4)cc3)c2)cc1C (repeat unit) | 106.50
54 | *CC(C)(C)COC(=O)NC(=O)c1cccc(C(=O)NC(=O)O*)c1 (repeat unit) | 66.00
55 | */C=C/CCCCCC* (repeat unit) | -78.00
56 | *CCCCOC(=O)OCC1CCC(COC(=O)O*)CC1 (repeat unit) | 13.00
57 | *C(=O)c1ccc2c(c1)C(=O)N(c1ccc(-c3ccc(N4C(=O)c5ccc(*)cc5C4=O)c(OCCCCCCOc4ccc(/C=C/c5ccc(F)cc5)cc4)c3)cc1OCCCCCCOc1ccc(/C=C/c3ccc(F)cc3)cc1)C2=O (repeat unit) | 128.00
58 | *CCCCOc1ccc(C(=O)Nc2cccc(P(=O)(c3ccccc3)c3cccc(NC(=O)c4ccc(O*)cc4)c3)c2)cc1 (repeat unit) | 191.00
59 | *O[Si](C)(C)[Si](*)(C)C (repeat unit) | -119.00
60 | */C=C(\F)C(F)(F)C* (repeat unit) | -35.00
61 | *c1ccc(Oc2ccc(C(C)(C)c3ccc(Oc4ccc(N5C(=O)C6CCC(C7CCC8C(=O)N(*)C(=O)C8C7)CC6C5=O)cc4)cc3)cc2)cc1 (repeat unit) | 225.00
62 | *CCCCOC(=O)CCCCCCCCC(=O)O* (repeat unit) | -57.00
